Here are results for three compounds from paper PMC5257293 (Journal of medicinal chemistry, 2016).

One assay deals with Sa(H30N, F98Y) DHFR (Staphylococcus aureus, UniProt P0A017, F99Y/H31N). The experiment in a line: DHFR enzyme inhibition. It is filed as biochemical. The conditions noted are these: Ki ratio mutant vs wild-type.
For the next assay, the system named is Sa43300(H149R). The assay can be described thus: Mutant selection / mutational frequency at 6x MIC. It is filed as cell-based, Staphylococcus aureus. Conditions: progenitor Sa(H149R), selection at 6x MIC.
For a further assay, the system named is Sa43300(F98Y). The experiment in a line: Mutant selection / mutational frequency at 6x MIC. The class given is cell-based, Staphylococcus aureus. Conditions: progenitor Sa(F98Y), selection at 6x MIC.
For another assay, the system named is S. aureus 43300. The conditions noted are these: cited from earlier work.
Another assay concerns Sa43300. The experiment in a line: Mutant selection / mutational frequency at 6x MIC. The conditions noted are these: progenitor Sa43300, selection at 6x MIC. The class given is cell-based, Staphylococcus aureus.

For the compound `CCc1nc(N)nc(N)c1C#CC(C)c1cc2c(c(-c3ccncc3)c1)OCO2` (centres unmarked) [Compound 2], the “loss in affinity for Sa (F98Y, H30N) double mutant enzyme relative to wild-type” value on Sa(H30N, F98Y) DHFR is recorded as 180 to 300 fold.

With `CCc1nc(N)nc(N)c1C#C[C@H](C)c1cc2c(c(-c3ccncc3)c1)OCO2` [Compound 7], at Sa(H30N, F98Y) DHFR, the “loss in affinity for Sa (F98Y, H30N) double mutant enzyme relative to wild-type” value lay within 180 to 300 fold.

As for `CCc1nc(N)nc(N)c1C#CC(C)c1cc(OC)cc(-c2ccncc2)c1` (centres unmarked) [Compound 1], the “Mutational Frequency, DHFR mutation F98Y/H149R” value in the assay on Sa43300(H149R) was 1.23x10^−11. In addition, the “Mutational Frequency, DHFR mutation F98Y/H30N” value in the assay with Sa43300(F98Y) was 8.2 x 10^−12. Further, in the assay with S. aureus 43300, the “mutation frequencies (mutants F98Y and F98I in the DHFR gene)” value is listed as 10^−10. Besides, in the assay with Sa43300, the “Mutational Frequency, DHFR mutation F98Y” value is reported as 3.11 x 10^−11; the “Mutational Frequency, DHFR mutation H30N” value is 4.67 x 10^−11; the “Mutational Frequency, DHFR mutation H149R” value is reported as 1.65 x 10^−10.
